Laboratory results from the kinase profiling compilation of Christmann-Franck et al. (2016).
Values joined by “and” are separate entries in the source; they are usually repeats but may differ in a detail not shown here. Equal values may be shown once.

Assays:
Test in all cases: Caliper, Mobility shift assay off-chip
[1] = target: MAPK9 (human) (UniProt P45984)
[2] = target: HIPK3 (human) (UniProt Q9H422)
[3] = target: DAPK1 (human) (UniProt P53355)
[4] = target: FGFR4 (human) (UniProt P22455)
[5] = target: CDK2 (human) (UniProt P24941)
[6] = target: CSNK1G1 (human) (UniProt Q9HCP0)
[7] = target: EPHA4 (human) (UniProt P54764)
[8] = target: PRKD3 (human) (UniProt O94806)
[9] = target: PDK2 (human) (UniProt Q15119)
[10] = target: CLK3 (human) (UniProt P49761)
[11] = target: IKBKE (human) (UniProt Q14164)
IKBKE (human), sequence (Q14164 whole entry, looked up): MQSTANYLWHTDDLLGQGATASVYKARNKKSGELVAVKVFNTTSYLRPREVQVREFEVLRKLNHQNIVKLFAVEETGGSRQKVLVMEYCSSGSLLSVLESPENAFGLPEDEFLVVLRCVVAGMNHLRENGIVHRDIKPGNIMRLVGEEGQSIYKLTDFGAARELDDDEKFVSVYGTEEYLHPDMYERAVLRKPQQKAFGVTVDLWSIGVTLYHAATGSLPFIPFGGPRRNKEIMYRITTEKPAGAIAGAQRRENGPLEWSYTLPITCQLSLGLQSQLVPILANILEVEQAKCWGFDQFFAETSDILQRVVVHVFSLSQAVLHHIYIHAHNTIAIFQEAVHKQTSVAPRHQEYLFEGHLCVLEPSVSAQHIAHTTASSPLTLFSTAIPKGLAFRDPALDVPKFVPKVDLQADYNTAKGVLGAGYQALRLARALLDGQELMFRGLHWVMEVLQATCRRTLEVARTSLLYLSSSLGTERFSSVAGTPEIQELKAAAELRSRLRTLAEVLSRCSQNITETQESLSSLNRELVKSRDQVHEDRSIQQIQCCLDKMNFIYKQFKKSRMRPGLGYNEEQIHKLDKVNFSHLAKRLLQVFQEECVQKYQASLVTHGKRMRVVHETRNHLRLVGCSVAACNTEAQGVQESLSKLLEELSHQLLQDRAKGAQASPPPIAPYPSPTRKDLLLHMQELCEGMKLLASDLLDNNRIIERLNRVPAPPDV

[12] = target: EPHB3 (human) (UniProt P54753)
[13] = target: CSNK1G2 (human) (UniProt P78368)
[14] = target: MST4 (human) (UniProt Q9P289)
[15] = target: DCLK2 (human) (UniProt Q8N568)
[16] = target: MAPKAPK3 (human) (UniProt Q16644)
[17] = target: CAMK2D (human) (UniProt Q13557)
[18] = target: SYK (human) (UniProt P43405)
[19] = target: ABL2 (human) (UniProt P42684)
ABL2 (human), sequence (P42684 whole entry, looked up): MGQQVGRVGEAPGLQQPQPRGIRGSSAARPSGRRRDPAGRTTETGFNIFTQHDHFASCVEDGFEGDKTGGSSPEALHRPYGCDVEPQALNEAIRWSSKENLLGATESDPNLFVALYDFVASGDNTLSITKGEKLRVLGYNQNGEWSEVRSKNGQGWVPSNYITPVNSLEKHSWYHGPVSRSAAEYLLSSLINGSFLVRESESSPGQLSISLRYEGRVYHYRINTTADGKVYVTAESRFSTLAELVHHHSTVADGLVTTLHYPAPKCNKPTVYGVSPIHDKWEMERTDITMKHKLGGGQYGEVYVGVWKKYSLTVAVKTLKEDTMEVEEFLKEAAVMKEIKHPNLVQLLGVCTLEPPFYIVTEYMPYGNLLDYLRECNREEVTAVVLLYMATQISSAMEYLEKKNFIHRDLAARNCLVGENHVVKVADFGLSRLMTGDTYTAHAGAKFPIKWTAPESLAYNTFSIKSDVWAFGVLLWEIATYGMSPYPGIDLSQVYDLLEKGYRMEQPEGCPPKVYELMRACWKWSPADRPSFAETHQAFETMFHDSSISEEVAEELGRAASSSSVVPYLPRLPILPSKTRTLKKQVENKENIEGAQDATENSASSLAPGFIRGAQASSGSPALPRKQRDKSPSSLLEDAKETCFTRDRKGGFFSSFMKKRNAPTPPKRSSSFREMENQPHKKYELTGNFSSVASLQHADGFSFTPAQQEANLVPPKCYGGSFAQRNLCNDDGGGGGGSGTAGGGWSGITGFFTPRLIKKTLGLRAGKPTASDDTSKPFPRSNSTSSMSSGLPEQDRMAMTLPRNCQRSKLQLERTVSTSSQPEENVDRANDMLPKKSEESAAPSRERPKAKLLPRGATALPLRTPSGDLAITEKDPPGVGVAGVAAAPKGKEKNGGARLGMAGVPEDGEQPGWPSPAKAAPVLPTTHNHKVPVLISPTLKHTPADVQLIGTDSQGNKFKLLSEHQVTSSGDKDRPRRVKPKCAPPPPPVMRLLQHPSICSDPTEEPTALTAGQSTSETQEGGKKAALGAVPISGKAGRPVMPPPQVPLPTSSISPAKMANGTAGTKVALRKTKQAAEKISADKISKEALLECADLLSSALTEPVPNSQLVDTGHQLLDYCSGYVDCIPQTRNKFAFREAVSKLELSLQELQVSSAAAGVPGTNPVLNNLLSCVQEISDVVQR

[20] = target: CAMK1 (human) (UniProt Q14012)
[21] = target: CSNK2A2 (human) (UniProt P19784)
[22] = target: STK38 (human) (UniProt Q15208)
STK38 (human), sequence (Q15208 whole entry, looked up): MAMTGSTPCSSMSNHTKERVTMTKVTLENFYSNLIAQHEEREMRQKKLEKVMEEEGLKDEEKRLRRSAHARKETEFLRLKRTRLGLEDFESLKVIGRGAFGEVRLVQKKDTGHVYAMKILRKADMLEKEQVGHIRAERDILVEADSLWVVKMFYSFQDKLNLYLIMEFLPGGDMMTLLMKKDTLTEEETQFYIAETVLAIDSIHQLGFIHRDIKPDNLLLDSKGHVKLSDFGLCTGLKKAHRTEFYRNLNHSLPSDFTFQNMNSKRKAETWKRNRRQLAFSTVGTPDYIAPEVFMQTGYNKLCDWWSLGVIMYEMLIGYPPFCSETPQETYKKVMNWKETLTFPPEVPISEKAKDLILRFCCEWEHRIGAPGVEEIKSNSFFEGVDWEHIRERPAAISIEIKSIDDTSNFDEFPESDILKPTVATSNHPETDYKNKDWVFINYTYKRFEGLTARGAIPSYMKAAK

[23] = target: CDK1 (human) (UniProt P06493)
[24] = target: MUSK (human) (UniProt O15146)
[25] = target: CSK (human) (UniProt P41240)
[26] = target: SLK (human) (UniProt Q9H2G2)
SLK (human), sequence (Q9H2G2 whole entry, looked up): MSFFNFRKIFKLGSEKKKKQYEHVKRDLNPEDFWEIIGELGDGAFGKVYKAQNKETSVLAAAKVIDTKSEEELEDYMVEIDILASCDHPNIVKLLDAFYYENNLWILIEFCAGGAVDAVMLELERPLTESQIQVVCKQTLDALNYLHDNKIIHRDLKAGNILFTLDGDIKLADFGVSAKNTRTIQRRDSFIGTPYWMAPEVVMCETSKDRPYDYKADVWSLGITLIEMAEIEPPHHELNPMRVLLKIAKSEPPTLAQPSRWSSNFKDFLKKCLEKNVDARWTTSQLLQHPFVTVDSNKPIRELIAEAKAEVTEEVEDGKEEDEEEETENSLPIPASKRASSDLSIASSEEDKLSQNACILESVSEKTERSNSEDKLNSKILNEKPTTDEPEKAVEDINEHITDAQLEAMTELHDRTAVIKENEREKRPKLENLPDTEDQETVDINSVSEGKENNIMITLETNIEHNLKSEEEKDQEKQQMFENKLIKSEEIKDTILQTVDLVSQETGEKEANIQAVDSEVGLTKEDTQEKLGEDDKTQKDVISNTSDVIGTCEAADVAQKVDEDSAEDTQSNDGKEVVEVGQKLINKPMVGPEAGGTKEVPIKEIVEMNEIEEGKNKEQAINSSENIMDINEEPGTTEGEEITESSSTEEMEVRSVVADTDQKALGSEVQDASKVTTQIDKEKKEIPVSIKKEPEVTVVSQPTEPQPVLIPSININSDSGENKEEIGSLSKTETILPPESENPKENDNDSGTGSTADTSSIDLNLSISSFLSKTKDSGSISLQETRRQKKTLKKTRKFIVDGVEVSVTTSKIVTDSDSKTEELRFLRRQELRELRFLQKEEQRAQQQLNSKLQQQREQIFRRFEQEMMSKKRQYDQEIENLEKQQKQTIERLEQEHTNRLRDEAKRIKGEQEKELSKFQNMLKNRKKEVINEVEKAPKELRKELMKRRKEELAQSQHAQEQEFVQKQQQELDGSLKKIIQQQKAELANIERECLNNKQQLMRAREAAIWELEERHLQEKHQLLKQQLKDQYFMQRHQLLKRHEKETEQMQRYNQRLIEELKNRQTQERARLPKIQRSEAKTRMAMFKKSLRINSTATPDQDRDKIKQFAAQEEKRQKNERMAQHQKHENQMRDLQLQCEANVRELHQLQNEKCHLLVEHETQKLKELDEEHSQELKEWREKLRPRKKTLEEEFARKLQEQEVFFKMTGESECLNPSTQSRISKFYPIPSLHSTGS

[27] = target: DYRK1B (human) (UniProt Q9Y463)
[28] = target: BRSK1 (human) (UniProt Q8TDC3)
[29] = target: GSG2 (human) (UniProt Q8TF76)
GSG2 (human), sequence (Q8TF76 whole entry, looked up): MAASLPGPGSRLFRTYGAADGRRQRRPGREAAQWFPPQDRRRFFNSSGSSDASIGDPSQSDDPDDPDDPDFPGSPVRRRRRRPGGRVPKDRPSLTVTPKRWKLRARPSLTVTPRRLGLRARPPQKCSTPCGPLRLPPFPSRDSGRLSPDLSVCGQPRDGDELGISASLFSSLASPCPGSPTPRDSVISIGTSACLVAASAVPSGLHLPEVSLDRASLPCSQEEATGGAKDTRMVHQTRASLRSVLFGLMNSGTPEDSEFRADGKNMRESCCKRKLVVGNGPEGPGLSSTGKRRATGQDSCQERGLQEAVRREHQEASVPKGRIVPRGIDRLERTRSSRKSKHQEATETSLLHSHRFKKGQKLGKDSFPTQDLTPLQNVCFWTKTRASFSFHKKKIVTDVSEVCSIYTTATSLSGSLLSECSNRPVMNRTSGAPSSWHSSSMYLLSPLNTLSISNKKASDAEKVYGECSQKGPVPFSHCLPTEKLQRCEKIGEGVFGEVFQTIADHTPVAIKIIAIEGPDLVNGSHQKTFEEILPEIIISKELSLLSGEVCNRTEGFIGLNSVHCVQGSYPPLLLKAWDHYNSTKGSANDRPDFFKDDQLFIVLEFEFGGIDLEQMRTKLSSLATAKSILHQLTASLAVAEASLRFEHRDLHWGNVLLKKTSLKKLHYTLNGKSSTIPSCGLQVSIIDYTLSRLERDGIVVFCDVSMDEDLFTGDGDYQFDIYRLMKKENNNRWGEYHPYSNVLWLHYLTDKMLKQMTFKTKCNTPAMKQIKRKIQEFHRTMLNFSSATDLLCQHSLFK

[30] = target: IRAK1 (human) (UniProt P51617)
[31] = target: BLK (human) (UniProt P51451)
[32] = target: AKT2 (human) (UniProt P31751)
AKT2 (human), sequence (P31751 whole entry, looked up): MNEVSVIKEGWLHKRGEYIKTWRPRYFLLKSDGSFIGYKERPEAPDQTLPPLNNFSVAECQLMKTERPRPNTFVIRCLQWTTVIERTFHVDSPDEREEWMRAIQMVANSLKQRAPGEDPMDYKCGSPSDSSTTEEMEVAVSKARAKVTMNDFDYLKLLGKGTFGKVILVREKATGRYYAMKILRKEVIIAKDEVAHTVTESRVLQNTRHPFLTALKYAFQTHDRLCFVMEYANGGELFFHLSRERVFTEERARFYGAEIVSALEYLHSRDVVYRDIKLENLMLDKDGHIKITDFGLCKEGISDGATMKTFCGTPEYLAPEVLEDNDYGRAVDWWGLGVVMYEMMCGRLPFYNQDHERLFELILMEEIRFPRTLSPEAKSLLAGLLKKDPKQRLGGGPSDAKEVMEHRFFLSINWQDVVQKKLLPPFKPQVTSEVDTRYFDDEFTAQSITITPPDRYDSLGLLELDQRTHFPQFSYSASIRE

[33] = target: PRKACG (human) (UniProt P22612)
[34] = target: EPHB4 (human) (UniProt P54760)

An inhibition ([1]; compound 0.02 µM) of -7.7%, an inhibition ([1]; compound 0.2 µM) of 0.5% and an inhibition ([2]; compound 0.02 µM) of 3.2% were found for `CNC(=O)c1cc(Oc2ccc(NC(=O)Nc3ccc(Cl)c(C(F)(F)F)c3)cc2)ccn1` in this work. For the same compound, the inhibition ([2]; compound 0.2 µM) was 28%, the inhibition ([3]; compound 0.02 µM) was 0.7% and the inhibition ([3]; compound 0.2 µM) was 1.1%. The inhibition ([4]; compound 0.02 µM) was -7.4%, the inhibition ([4]; compound 0.2 µM) was 8.8% and the inhibition ([5]; compound 0.02 µM) was -3.5% and -3.6%. For the same compound, the inhibition ([5]; compound 0.2 µM) was -1.3% and -2.4%, the inhibition ([6]; compound 0.02 µM) was -3.7% and the inhibition ([6]; compound 0.2 µM) was -3%. The inhibition ([7]; compound 0.02 µM) was -1.7%, the inhibition ([7]; compound 0.2 µM) was 22% and the inhibition ([8]; compound 0.02 µM) was -0.7%. The inhibition ([8]; compound 0.2 µM) was -5.1%, the inhibition ([9]; compound 0.02 µM) was -0.1% and the inhibition ([9]; compound 0.2 µM) was 1.3%. It also gave an inhibition ([10]; compound 0.02 µM) of -7.5%, an inhibition ([10]; compound 0.2 µM) of 5.9% and an inhibition ([11]; compound 0.02 µM) of -4.5%. It also gave an inhibition ([11]; compound 0.2 µM) of -4.7%, an inhibition ([12]; compound 0.02 µM) of -2.4% and an inhibition ([12]; compound 0.2 µM) of 0.9%. It also gave an inhibition ([13]; compound 0.02 µM) of -18.7%, an inhibition ([13]; compound 0.2 µM) of -0.7% and an inhibition ([14]; compound 0.02 µM) of -5.7%. It also gave an inhibition ([14]; compound 0.2 µM) of 0.1%, an inhibition ([15]; compound 0.02 µM) of -2.7% and an inhibition ([15]; compound 0.2 µM) of -1%. It also gave an inhibition ([16]; compound 0.02 µM) of -6.2%, an inhibition ([16]; compound 0.2 µM) of 3.5% and an inhibition ([17]; compound 0.2 µM) of 5.2%. The inhibition ([18]; compound 0.02 µM) was -7.3%, the inhibition ([18]; compound 0.2 µM) was -11.1% and the inhibition ([19]; compound 0.02 µM) was -2.8%. It also gave an inhibition ([19]; compound 0.2 µM) of 3.1%, an inhibition ([20]; compound 0.02 µM) of -4.6% and an inhibition ([20]; compound 0.2 µM) of -2.2%. The inhibition ([21]; compound 0.02 µM) was -3.5%, the inhibition ([21]; compound 0.2 µM) was 0.9% and the inhibition ([22]; compound 0.02 µM) was -2.5%. The inhibition ([22]; compound 0.2 µM) was 4.8%, the inhibition ([23]; compound 0.02 µM) was -2% and the inhibition ([23]; compound 0.2 µM) was -2%. The inhibition ([24]; compound 0.02 µM) was 24.4%, the inhibition ([24]; compound 0.2 µM) was 73.9% and the inhibition ([25]; compound 0.02 µM) was -9.3%. For the same compound, the inhibition ([25]; compound 0.2 µM) was 2.6%, the inhibition ([26]; compound 0.02 µM) was 1% and the inhibition ([26]; compound 0.2 µM) was 10.6%. The inhibition ([27]; compound 0.02 µM) was -6.7%, the inhibition ([27]; compound 0.2 µM) was 0.6% and the inhibition ([28]; compound 0.02 µM) was -2.6%. The inhibition ([28]; compound 0.2 µM) was -6%, the inhibition ([29]; compound 0.02 µM) was -3% and the inhibition ([29]; compound 0.2 µM) was -1.8%. For the same compound, the inhibition ([30]; compound 0.02 µM) was -4%, the inhibition ([30]; compound 0.2 µM) was -7.2% and the inhibition ([31]; compound 0.02 µM) was 1%. It also gave an inhibition ([31]; compound 0.2 µM) of 6.4%, an inhibition ([32]; compound 0.02 µM) of -9% and an inhibition ([32]; compound 0.2 µM) of -8.2%. The inhibition ([33]; compound 0.02 µM) was -6.6% and the inhibition ([33]; compound 0.2 µM) was -6%.
An inhibition ([2]; compound 0.02 µM) of 2.3%, an inhibition ([2]; compound 0.2 µM) of 2.6% and an inhibition ([3]; compound 0.02 µM) of 6.5% were found for `Cc1ccc(Nc2nccc(N(C)c3ccc4c(C)n(C)nc4c3)n2)cc1S(N)(=O)=O` in this work. For the same compound, the inhibition ([3]; compound 0.2 µM) was 6.7%, the inhibition ([4]; compound 0.02 µM) was 0.7% and the inhibition ([4]; compound 0.2 µM) was 29.7%. The inhibition ([5]; compound 0.02 µM) was -0.1% and -1.7%, the inhibition ([5]; compound 0.2 µM) was -1.7% and -2.8% and the inhibition ([6]; compound 0.02 µM) was -0.9%. It also gave an inhibition ([6]; compound 0.2 µM) of -1%, an inhibition ([7]; compound 0.02 µM) of -4.7% and an inhibition ([7]; compound 0.2 µM) of 0.2%. The inhibition ([8]; compound 0.02 µM) was -1.6%, the inhibition ([8]; compound 0.2 µM) was 1.3% and the inhibition ([9]; compound 0.02 µM) was -2.3%. For the same compound, the inhibition ([9]; compound 0.2 µM) was -4.2%, the inhibition ([34]; compound 0.02 µM) was -2.8% and the inhibition ([34]; compound 0.2 µM) was -2.6%. For the same compound, the inhibition ([10]; compound 0.02 µM) was -3.9%, the inhibition ([10]; compound 0.2 µM) was 9.6% and the inhibition ([11]; compound 0.02 µM) was -3.4%. For the same compound, the inhibition ([11]; compound 0.2 µM) was -7.1%, the inhibition ([12]; compound 0.02 µM) was -6.1% and the inhibition ([12]; compound 0.2 µM) was -4%. It also gave an inhibition ([13]; compound 0.02 µM) of 1.7%, an inhibition ([13]; compound 0.2 µM) of 0.3% and an inhibition ([14]; compound 0.02 µM) of -9.1%. For the same compound, the inhibition ([14]; compound 0.2 µM) was -4%, the inhibition ([15]; compound 0.02 µM) was -1.2% and the inhibition ([15]; compound 0.2 µM) was -0.9%. It also gave an inhibition ([16]; compound 0.02 µM) of 2.3%, an inhibition ([16]; compound 0.2 µM) of 1.6% and an inhibition ([17]; compound 0.02 µM) of 4.9%. For the same compound, the inhibition ([17]; compound 0.2 µM) was 4.6%, the inhibition ([18]; compound 0.02 µM) was 4.4% and the inhibition ([18]; compound 0.2 µM) was -4.7%. The inhibition ([19]; compound 0.02 µM) was 2.6%, the inhibition ([19]; compound 0.2 µM) was 27.6% and the inhibition ([20]; compound 0.02 µM) was -2.3%. The inhibition ([20]; compound 0.2 µM) was 1.4%, the inhibition ([21]; compound 0.02 µM) was -2.8% and the inhibition ([21]; compound 0.2 µM) was -1.4%. For the same compound, the inhibition ([22]; compound 0.02 µM) was 0.1%, the inhibition ([22]; compound 0.2 µM) was 7.5% and the inhibition ([23]; compound 0.02 µM) was -2.9%. The inhibition ([23]; compound 0.2 µM) was -1.5%, the inhibition ([24]; compound 0.02 µM) was -1.6% and the inhibition ([24]; compound 0.2 µM) was 0.7%. For the same compound, the inhibition ([25]; compound 0.02 µM) was -4.8%, the inhibition ([25]; compound 0.2 µM) was -0.7% and the inhibition ([26]; compound 0.02 µM) was 9%. For the same compound, the inhibition ([26]; compound 0.2 µM) was 12.3%, the inhibition ([27]; compound 0.02 µM) was -4.3% and the inhibition ([27]; compound 0.2 µM) was 7.4%. It also gave an inhibition ([28]; compound 0.02 µM) of 5.3%, an inhibition ([28]; compound 0.2 µM) of 3.2% and an inhibition ([29]; compound 0.02 µM) of -1.1%. For the same compound, the inhibition ([29]; compound 0.2 µM) was 4.3%, the inhibition ([30]; compound 0.02 µM) was -17.4% and the inhibition ([30]; compound 0.2 µM) was -14.6%. For the same compound, the inhibition ([31]; compound 0.02 µM) was 7.7%, the inhibition ([31]; compound 0.2 µM) was 22.7% and the inhibition ([32]; compound 0.02 µM) was 4.7%. It also gave an inhibition ([32]; compound 0.2 µM) of 3%, an inhibition ([33]; compound 0.02 µM) of -6.9% and an inhibition ([33]; compound 0.2 µM) of -6.6%.
